Here are results for four compounds from publication PMC3542062, “A phenyl-thiadiazolylidene-amine derivative ejects zinc from retroviral nucleocapsid zinc fingers and inactivates HIV virions” (Retrovirology, 2012).

The EC50 is the midpoint of the concentration-response curve. The term CC50 denotes the concentration that lowers cell viability or growth by half. The low end stands for greater toxicity to the cells, the high end for lower toxicity to the cells.

One data set has as its system NL4.3/AMD3100R. The data set can be described thus: microbe, parasite or virus in culture. The data set is classed as cell-based, HIV-1. To be noted: NL4.3/AMD3100R; EC50 for NL4.3 wild-type as 1.
For data set [1], the system named is HIV-1 IIIB chronically-infected HuT-78 cells. Put plainly: Gag processing in virions from HIV-1 IIIB chronically-infected HuT-78 cells (western blot). To be noted: HuT-78/IIIB cells treated 43 hours; WDO-217 50, 25 μM; ritonavir 2.7 μM; SRR-SB3 75, 15 μM. Format: cell-based. On the procedure:
Recently, it has been shown that this new mechanism involves acetylation of the NCp7 region of Gag, thereby blocking Gag processing.
HIV-1 IIIB virions from persistently infected HuT-78 cells treated with different concentrations of compound were analysed by gel electrophoresis and immunoblotted with antibody against capsid.
Chronically-infected HIV-1 IIIB HuT-78 cells (HuT-78/IIIB) were washed four times with PBS to remove all free virions before treatment and 2 × 10^5 cells were resuspended in 1 ml compound-containing medium for 43 hours at 37°C. Then, virions were prepared from clarified supernatants (10 min at 300 g) by centrifugation at 36670 g for 2 hours at 4°C. Protein from lysed virions were separated by SDS-PAGE on a NuPage® Novex 4-12% Bis-Tris gel (Invitrogen) and transferred on a hydrophobic polyvinylidene difluoride (PVDF) membrane (Amersham Hybond™-P). The blot was blocked overnight at 4°C by 5% dry milk powder in Western blot wash solution (WBWS; PBS + 0.5% Tween 20), washed three times for 5 minutes with WBWS and incubated with a mouse anti-HIV-1 p24 antibody (1:5000) from Abcam. The blot was then washed three times for 5 minutes with WBWS and incubated for 1 h with a goat anti-mouse IgG-HRP secondary antibody (1:2500) from Santa Cruz Biotechnology. […]

Data set [2] concerns HIV-1 IIIB. Put plainly: MT-4/MTT-assay, protection against virus-induced cytopathic effect. Format: cell-based. To be noted: MT-4 cells, MTT, 5 days after infection. (In general: Tetrazolium dyes change colour on reduction, which living cells bring about.)
For data set [3], the system named is HIV-2 ROD. Described as above. To be noted: MT-4 cells, MTT, 5 days after infection. The data set is classed as cell-based.
A further data set deals with SIV Mac251. The description is as above. Format: cell-based. To be noted: MT-4 cells, MTT, 5 days after infection.
The test system of another data set is MT-4 cells. Put plainly: Cytotoxicity in mock-infected MT-4 cells (MTT). Format: cell-based.
In data set [4] the test system is HIV-1 IIIB. The data set can be described thus: Anti-HIV activity in CEM cells (cytopathogenicity). Format: cell-based. For orientation: Damage to the host cells serves as the signal in cytopathic effect assays.
Data set [5] relates to HIV-2 ROD. Put plainly: Anti-HIV activity in CEM cells (cytopathogenicity). Format: cell-based.
Data set [6] relates to human T-lymphocyte (CEM) cells. The data set can be described thus: Cytostatic activity, CEM cell proliferation. Format: cell-based.
The test system of data set [7] is HIV-1 virus particles. The data set can be described thus: Virion-associated p24 of pre-treated, compound-cleared virus (ELISA). To be noted: compound-cleared HIV-1 virus stock.
Data set [8] has as its system HIV-1 virus particles. The data set can be described thus: Virion-associated genomic RNA of pre-treated virus (RT-qPCR, Northern blot). To be noted: compound-cleared HIV-1 virus stock, RT-qPCR or Northern blot. A general note: Real-time PCR tracks product formation cycle by cycle.
Data set [9] has as its system HIV-1 IIIB. The data set can be described thus: Virucidal assay: virus pre-incubated with compound, diluted, titrated on MT-4 cells. To be noted: virus incubated 1 h 37°C with 0.5%; no drug 1 × 10^6.
The test system of data set [10] is HIV-2 ROD. The data set is described as above. To be noted: virus incubated 1 h 37°C with 0.5%; no drug 5.4 × 10^6.

Turning to `c1cc(CN2CCCNCCNCCCNCC2)ccc1CN1CCCNCCNCCCNCC1` [AMD3100, reference compound], the “Fold resistance of mutant strain towards the respective inhibitor” value in the data set with NL4.3/AMD3100R is given as “(>100)”.
Consider `CC(C)c1nc(CN(C)C(=O)N[C@H](C(=O)N[C@@H](Cc2ccccc2)C[C@H](O)[C@H](Cc2ccccc2)NC(=O)OCc2cncs2)C(C)C)cs1` [ritonavir, reference compound], for which the “accumulation of unprocessed Gag polyprotein in progeny virus” value in data set [1] is given as “did effectively increase”.
Consider `Cc1cn([C@H]2C[C@H](N=[N+]=[N-])[C@@H](CO)O2)c(=O)[nH]c1=O` [AZT, reference compound], for which the EC50 in the data set on HIV-1 IIIB [2] was 7 ± 1 nM; in the data set on HIV-2 ROD [3], 5 ± 0.8 nM; with SIV Mac251, 16 ± 7 nM; in the data set on HIV-1 IIIB [4] it was 58 ± 30 nM; in the data set with HIV-2 ROD [5] it was 55 ± 20 nM. The CC50 with MT-4 cells is > 35000 nM; in [6] it was > 125000 nM.
Turning to Triton X-100 [reference compound], in the data set on HIV-1 virus particles [7], the “virus-associated p24 core protein after treatment” value was “no p24 core protein nor viral genomic RNA could be detected”. Besides, the “viral genomic RNA content after treatment” value with HIV-1 virus particles [8] is on record as “no p24 core protein nor viral genomic RNA could be detected”. The “CCID50/ml HIV-1 IIIB” value with HIV-1 IIIB [9] is 0 CCID50/ml. The “CCID50/ml HIV-2 ROD” value with HIV-2 ROD [10] is on record as 0 CCID50/ml.
